Source: patent publication US20240252520A1 (priority 2023, published 2024)
Entries after “also recorded” stand apart in the source; their conditions may differ.

Columns and labels:
db/db mouse model [1] = experiment: Receptor agonists and antagonists on db/db mouse wounds, day 5 sacrifice; conditions: 2 mg/kg topically daily with blk-gel; Chrm1, Chrm3 or α7nAChR agonist
fibroblasts [2] = experiment: Alamar Blue assay of fibroblast metabolic activity; format: cell-based, human; conditions: over three days after treatment
Text: (§1) This concentration was selected for all subsequent experiments (FIG. 24A).
Following the in silico prioritization of metrifonate as a key compound in promoting wound healing, we determined if addition of metrifonate influenced key cell functions in tissue cultures of cells that are implicated in wound healing, such as fibroblasts, keratinocytes and macrophages.
In a further example, an alamarBlue™ Assay can be used as follows: Human dermal fibroblasts (immortalized cell line, abm Cat. No. T0904) are cultured in complete medium (PriGrow III with 10% Fetal Bovine Serum, 100U/L penicillin, and 100 ug/L streptomycin) at 37° C. in 5% CO2. The cells are passaged every 7 days using 0.025% trypsin-ethylenediaminetetraacetic acid (Life Technologies) and plated at 10,000 cells per well in 96-well plates. […] Cell viability is determined by alarmarBlue™ (Invitrogen) after 48h, and 72h of incubation. Briefly, after 48 or 72h of incubation the media containing inhibitors is removed and replaced with 10% v/v alamarBlue™ in complete media and the plate is incubated at 37° C. for further 24 h. After this incubation period, plates are read at an excitation range of 540-570 nm and an emission range of 580-610 nm. All AchE inhibitors are expected to not negatively affect cell proliferation up to the concentration of 10 μg/ml.

keratinocytes [3] = experiment: Wound healing scratch assay of keratinocytes with metrifonate; format: cell-based; conditions: 10 μg/ml, after 24 hours
Description: as §1
Keratinocyte HaCaT cells (ATCC) are cultured in complete medium (Dulbecco's Modified Eagle Medium with 10% Fetal Bovine Serum, 100U/L penicillin, and 100 ug/L streptomycin) at 37° C. in 5% CO2. The cells are passaged every 5 days using 0.025% trypsin-ethylenediaminetetraacetic acid (Life Technologies) detachment and plated at 100,000 cells per well in 24-well plates. The cell monolayer is scratched in a straight line using a P200 pipette tip. […] Images are taken immediately after the scratch (0 h), in 6 h, 12 h, 24 h, 48 h, and 72 h for at least four wells per condition. Scratch areas are analyzed using ImageJ/FIJI. At least three independent experiments are performed. All AchE inhibitors are expected to promote faster wound coverage up to the concentration of 10 μg/ml.

[4] = tested on: THP-1 derived macrophages; experiment: Cytokine gene expression in THP-1 derived macrophages polarized to M0, M1, M2; format: cell-based, human
Text: as §1

db/db mouse model [5] = experiment: LD-Met gel in db/db mice, Day 5 and Day 10 wound analyses; format: in vivo; conditions: Day 5
[6] = target: T1, Acetylcholinesterase (AchE) (Mus musculus, UniProt P21836); experiment: AchE activity in Day 5 mouse wound lysates; format: in vivo; conditions: Day 5, 2 days after bandage removal
T1 construct: measuring the levels of the enzyme on Day 5 in mouse wounds lysates; from tissue; host or cells: skin wound tissue lysate of db/db mice, Day 5 after wounding
T1 sequence (P21836 32-614): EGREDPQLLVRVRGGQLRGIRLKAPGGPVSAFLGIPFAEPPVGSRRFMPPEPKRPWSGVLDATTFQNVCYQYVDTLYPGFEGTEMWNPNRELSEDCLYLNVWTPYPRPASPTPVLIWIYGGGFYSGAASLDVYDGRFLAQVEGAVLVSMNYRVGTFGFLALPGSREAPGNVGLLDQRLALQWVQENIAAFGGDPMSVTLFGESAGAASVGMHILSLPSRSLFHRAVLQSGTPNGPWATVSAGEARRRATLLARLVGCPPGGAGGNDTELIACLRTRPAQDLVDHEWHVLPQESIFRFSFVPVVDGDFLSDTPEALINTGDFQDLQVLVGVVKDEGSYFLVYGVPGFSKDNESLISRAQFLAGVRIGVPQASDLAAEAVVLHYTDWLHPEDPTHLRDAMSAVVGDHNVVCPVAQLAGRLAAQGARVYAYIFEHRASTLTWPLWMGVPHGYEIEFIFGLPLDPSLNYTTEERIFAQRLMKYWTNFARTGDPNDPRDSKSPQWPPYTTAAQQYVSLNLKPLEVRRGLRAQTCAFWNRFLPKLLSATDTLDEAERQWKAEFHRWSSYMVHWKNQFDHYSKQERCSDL

diabetic humanized mice = experiment: Metrifonate hydrogel on diabetic humanized mice wounds; format: in vivo, mouse
Text: These genes are well known to improve impaired diabetic wound healing, see Berry-Kilgour et al., Advancements in the Delivery of Growth Factors and Cytokines for the Treatment of Cutaneous Wound Indications; Adv Wound Care (New Rochelle) 2021; 10(11):596-622. Epub 20201125. doi:10/1089?wound.2020.1183. PubMed PMID:33086946: PMCID: PMC8392095.
To generate a humanized skin graft mice model, Foxn1nu nude male mice of 6 weeks old can be used as the recipient animals. These mice are devoid of T cells and suffer from a lack of cell-mediated immunity making them a model of choice for xenograft studies. […] Following the sustained diabetic state period, wounds are inflicted on the transplanted human skin with a 3 mm punch biopsy, treatment options include the best two Metrifonate-Hydrogel dressings, previously determined by the mice and pig studies for the preferred two doses. […] Wound healing can be monitored using standardized photography daily during the course of 3, 5 and 10 days. […]
To generate a humanized skin graft mice model, Foxn1nu nude male mice of 6 weeks old can be used as the recipient animals. […] Following the sustained diabetic state period, wounds are inflicted on the transplanted human skin with a 3 mm punch biopsy, treatment options include the best two Metrifonate-Hydrogel dressings, previously determined by the mice and pig studies for the preferred two doses. […]

[7] = oral 30-60 mg daily up to 26 weeks; cited from earlier work
fibroblasts [8] = experiment: Nicotinic and muscarinic receptor gene expression, fibroblasts; conditions: 48 hours
keratinocytes [9] = experiment: Nicotinic and muscarinic receptor gene expression, keratinocytes; conditions: 48 hours
acute porcine wounds = experiment: Metrifonate eluting dressings on acute porcine wounds over 20 days
[10] = tested on: THP-1 monocyte derived macrophages; experiment: Nicotinic and muscarinic receptor gene expression, THP-1 monocyte derived macrophages; conditions: 48 hours
diabetic db/db mice = experiment: LNP-FGF2, LNP-IL-2, LNP-CHI3L1, LNP-IL-17A mRNA bandages in db/db mice (Example 15); format: in vivo, mouse
Description: Two 6-mm punch biopsy full-thickness wounds were created on the dorsum of 16-week-old diabetic db/db mice (FIG. 19A). Macroporous bandages loaded with 4 μg of LNP-FGF2, LNP-IL-2, LNP-CHI3L1, and LNP-IL-17A mRNA were topically applied on the wounds for 10 days. […] The wound size was measured every three days.

C[N+](C)(C)CC#CCOC(=O)Nc1cccc(Cl)c1.[Cl-] [McN-A 343]
effect of agonist on wound healing (db/db mouse model [1]): promoted the wound healing; also recorded: accelerated wound healing

O=C(N[C@H]1CN2CCC1CC2)c1ccc(Cl)cc1 [PNU-282987]
effect of agonist on wound healing (db/db mouse model [1]): only the M1 agonist accelerated wound healing

COP(=O)(OC)C(O)C(Cl)(Cl)Cl (stereo not shown) [metrifonate, (2,2,2-trichloro-1-hydroxyethyl) dimethylphosphonate]
metrifonate concentration that began to negatively affect viability (fibroblasts [2]): over 10 μg/ml
keratinocyte migration / scratch wound closure (keratinocytes [3]): significantly accelerate migration
increase in IL10 gene expression ([4]; M0 macrophages): 30 fold
downregulation of IL1b ([4]; M1 cells): 12 fold
downregulation of TNF ([4]; M1 cells): 40 fold
increase in IL10 gene expression ([4]; M2 macrophages): 10 fold
total and degranulated mast cells (toluidine blue staining) (db/db mouse model [5]): enrichment of both total and degranulated mast cells
Acetylcholinesterase (AchE) activity in wounds [6]: inhibits the activity of Acetylcholinesterase (AchE)
wound healing (diabetic humanized mice; low dose hydrogel vs blank hydrogel, D0 to D7): improved wound healing
expression of Il10, Arg and human gene VEGFA (RT-qPCR) (diabetic humanized mice; upon sacrifice): increased the expression
clinical effect in mild-to-moderate Alzheimer's disease [7]: beneficial effect
receptor gene expression (fibroblasts [8]): activation of CHRNA4; also recorded: increased expression of CHRNA4
receptor gene expression (keratinocytes [9]): up-regulation of CHRM3 and CHRNB4 receptors
adverse effects (acute porcine wounds): did not induce any adverse effects
wound lengths in histological assessment (acute porcine wounds): shorter wound lengths
receptor gene expression ([10]; M0 cells): activation of CHRM3 receptor; also recorded: up-regulation of CHRM3 receptor
receptor gene expression ([10]; M1 cells): activation of CHRM4; also recorded: higher expression of CHRM4 and CHRNA3 receptors

CHI3L1 protein: bandages loaded with CHI3L1 protein employed as additional control
wound healing during the whole period vs blank bandage (repeated measurement analysis) (diabetic db/db mice; 4 μg bandage, D0 to D10): no differences in wound healing
wound reduction on Day 10 (diabetic db/db mice; Day 10, compared with blank): similar

LASSBIo0897
effect of agonist on wound healing (db/db mouse model [1]): only the M1 agonist accelerated wound healing
